Results on 12 compounds are retold here after patent US8685942B2, “Sophorolipid analog compositions” (priority 2010, dated 2014).

For one data set, the system named is Eserichia coli. The following applies: cited from earlier work.
The next data set deals with Moraxella. The note with it: cited from earlier work.
In the next data set the test system is Salmonella choleraesuis. The following applies: cited from earlier work.
For the next data set, the system named is Rhodoccocuserythropolis. The note with it: cited from earlier work.
The test system of the next data set is Ralstoniaeutropha. The following applies: cited from earlier work.
The next data set has as its system Botrytis cinerea. Put plainly: Antifungal MIC, 96 well microplate, spore suspension. The format is cell-based. On the procedure:
(§1) Sophorolipid samples were dissolved in 5% ethanol solution to a final concentration of 5 mg/mL and used as a stock solution. The stock solution (100 μl) was added into a 96 well microplate and serially diluted from 2.5 mg/ml to 0.0024 mg/ml using culture medium. After serial dilution, 80 μl of fresh culture medium and 20 μl of spore suspension were added to each well and the plates were incubated for 7 days. The minimum inhibitory concentration (MIC) was determined to measure antifungal activity of sophorolipid-derived compounds. MIC values for antifungal activity were determined by absence of visible growth in the micro wells containing sophorolipid after 7 days of incubation.
as §1, §1

The subject of the next data set is Alternariatomatophilia. Described as above. Type of data set: cell-based. On the procedure:
as §1, §1, §1

For a further data set, the system named is pathogens. Description: Antifungal MIC screen, summary over the pathogen panel. The format is cell-based. The following applies: of the eight pathogens of Tables 2-4. On the procedure:
as §1, with “The hydrogenated lactonic sophorolipids have antifungal activity, which were confirmed by experiment and observations. Sophorolipid” for “Sophorolipid”, “incubation. Natural and lactonic SLs were active against four pathogens, whereas hydrogenated lactonic and acidic SLs active against three and two pathogens respectively.” for “incubation.”
as §1, with “The acidic sophorolipid esters have antifungal activity, which were confirmed by experiment and observations. Sophorolipid” for “Sophorolipid”
as §1, with “The acidic sophorolipid amide derivatives have antifungal activity, which were confirmed by experiment and observations. Sophorolipid” for “Sophorolipid”

For a further data set, the system named is A. alternate. Put plainly: Antifungal MIC, 96 well microplate, spore suspension. The following applies: 168 h. The format is cell-based. On the procedure:
as §1, §1, §1

The test system of the next data set is A. solani. The data set is described as above. Type of data set: cell-based. On the procedure: as §1, §1, §1
The subject of a further data set is Phytophthoracapsici. Described as above. The note with it: absence of visible growth after 7 days, diluted from 2.5 to 0.0024 mg/ml. The format is cell-based. On the procedure:
as §1, §1, §1

For the next data set, the system named is Fusarimoxysporium. Described as above. The format is cell-based. The following applies: absence of visible growth after 7 days, diluted from 2.5 to 0.0024 mg/ml. On the procedure:
as §1, §1, §1

In a further data set the test system is Phytophthorainfestans. The description is as above. The format is cell-based. The note with it: absence of visible growth after 7 days, diluted from 2.5 to 0.0024 mg/ml. On the procedure: as §1, §1, §1
The subject of the next data set is vaginal cell. The following applies: cited from earlier work.
[1] abbreviates: Alternariatomatophilia, absence of visible growth after 7 days, diluted from 2.5 to 0.0024 mg/ml.
The mark [2] stands for this setting: A. solani, absence of visible growth after 7 days, diluted from 2.5 to 0.0024 mg/ml.

Converted amounts (≈) assume the structure as drawn. Like-named read-outs stand apart in the source and are kept apart here.

`CC(CCCCCC/C=C\CCCCCCCC(=O)O)OC1OC(CO)C(O)C(O)C1OC1OC(CO)C(O)C(O)C1O` (centres unmarked) [SL-A-4]: the MIC100 is 5000 µg/mL (≈ 8030 µM) in the data set with Eserichia coli; 5000 µg/mL (≈ 8030 µM) with Moraxella; 5000 µg/mL (≈ 8030 µM) with Salmonella choleraesuis; 560 µg/mL (≈ 899 µM) with Rhodoccocuserythropolis; 5000 µg/mL (≈ 8030 µM) in the data set with Ralstoniaeutropha.

`CC(CCCCCC/C=C\CCCCCCCC(=O)NCCO)OC1OC(CO)C(O)C(O)C1OC1OC(CO)C(O)C(O)C1O` (centres unmarked) [SL-AM-1]: the MIC (usually the least concentration at which growth counts as inhibited) was determined as 2500 µg/mL (≈ 3750 µM) in the data set on Botrytis cinerea (absence of visible growth after 7 days, diluted from 2.5 to 0.0024 mg/ml) and 2500 µg/mL (≈ 3750 µM) with Alternariatomatophilia (setting [1]).

Regarding `CC(CCCCCC/C=C\CCCCCCCC(=O)NCCN(C)C)OC1OC(CO)C(O)C(O)C1OC1OC(CO)C(O)C(O)C1O` (centres unmarked) [SL-AM-3, (Z)-17-((4,5-dihydroxy-6-(hydroxymethyl)-3-((3,4,5-trihydroxy-6-(hydroxymethyl)tetrahydro-2H-pyran-2-yl)oxy)tetrahydro-2H-pyran-2-yl)oxy)-N-(2-(dimethylamino)ethyl)-octadec-9-enamide], the “number of pathogens active against” value in the data set with pathogens is recorded as “four”. The MIC in the data set with A. alternate is 1250 µg/mL (≈ 1800 µM); against Botrytis cinerea (168 h), 600 µg/mL (≈ 866 µM); with A. solani (Alternaria solani, 168 h), 150 µg/mL (≈ 216 µM); in the data set on Alternariatomatophilia (168 h), 300 µg/mL (≈ 433 µM).

Regarding `CC(CCCCCC/C=C\CCCCCCCC(=O)NCC[N+](C)(C)C)OC1OC(CO)C(O)C(O)C1OC1OC(CO)C(O)C(O)C1O` (centres unmarked) [SL-AM-4, (Z)-2-(17-((4,5-dihydroxy-6-(hydroxymethyl)-3-((3,4,5-trihydroxy-6 (hydroxyl methyl)tetrahydro-2H-pyran-2-yl)oxy)tetrahydro-2H-pyran-2-yl)oxy)octadec-9-enamido)-N,N,N-trimethylethanaminium iodide], the “number of pathogens active against” value with pathogens is “four”. Further, the MIC stood at 1250 µg/mL with A. alternate (A. alternate, absence of visible growth after 7 days, diluted from 2.5 to 0.0024 mg/ml, read-out: MIC); 600 µg/mL in the data set on Botrytis cinerea (168 h, absence of visible growth after 7 days, diluted from 2.5 to 0.0024 mg/ml, read-out: MIC); 600 µg/mL with A. solani (Alternaria solani, 168 h, A. solani, absence of visible growth after 7 days, diluted from 2.5 to 0.0024 mg/ml, read-out: MIC); 150 µg/mL with Alternariatomatophilia (168 h, Alternariatomatophilia, absence of visible growth after 7 days, diluted from 2.5 to 0.0024 mg/ml, read-out: MIC).

`COC(=O)CCCCCCC/C=C\CCCCCCC(C)OC1OC(CO)C(O)C(O)C1OC1OC(CO)C(O)C(O)C1O` (centres unmarked) [SL-E-1, sophorolipid methyl ester]: the MIC100 was 1670 µg/mL (≈ 2620 µM) in the data set on Eserichia coli; 61.7 µg/mL (≈ 96.9 µM) in the data set on Moraxella; 1670 µg/mL (≈ 2620 µM) in the data set on Salmonella choleraesuis; 5000 µg/mL (≈ 7850 µM) with Rhodoccocuserythropolis; 5000 µg/mL (≈ 7850 µM) with Ralstoniaeutropha. Further, the “number of pathogens active against” value in the data set with pathogens is on record as “three”. Further, the minimum inhibitory concentration (MIC) in the data set with A. solani (setting [2]) is 2500 µg/mL (≈ 3930 µM); in the data set on Phytophthoracapsici it was 1250 µg/mL (≈ 1960 µM); in the data set on Fusarimoxysporium it was 2500 µg/mL (≈ 3930 µM).

As for `CCCCOC(=O)CCCCCCC/C=C\CCCCCCC(C)OC1OC(CO)C(O)C(O)C1OC1OC(CO)C(O)C(O)C1O` (centres unmarked) [SL-E-3], the “number of pathogens active against” value in the data set on pathogens is listed as “three”. For the same compound, the MIC with A. solani (setting [2]) came to 1250 µg/mL (≈ 1840 µM); against Alternariatomatophilia (setting [1]), 150 µg/mL (≈ 221 µM); in the data set with Phytophthorainfestans, 1250 µg/mL (≈ 1840 µM).

Turning to `CCOC(=O)CCCCCCC/C=C\CCCCCCC(C)OC1OC(CO)C(O)C(O)C1OC1OC(COC(C)=O)C(O)C(O)C1O` (centres unmarked) [SL-E-4], the MIC100 with Eserichia coli is 5000 µg/mL (≈ 7220 µM); with Moraxella it was 20.5 µg/mL (≈ 29.6 µM); in the data set with Salmonella choleraesuis, 5000 µg/mL (≈ 7220 µM); in the data set on Rhodoccocuserythropolis it was 6.86 µg/mL (≈ 9.9 µM); with Ralstoniaeutropha, 5000 µg/mL (≈ 7220 µM). The “number of pathogens active against” value with pathogens is “one”. Moreover, the MIC against Phytophthoracapsici is 600 µg/mL (≈ 866 µM).

Consider `CCOC(=O)CCCCCCC/C=C\CCCCCCC(C)OC1OC(COC(C)=O)C(O)C(O)C1OC1OC(COC(C)=O)C(O)C(O)C1O` (centres unmarked) [SL-E-5], for which the MIC100 in the data set on Eserichia coli is 5000 µg/mL (≈ 6800 µM); in the data set with Moraxella, 61.7 µg/mL (≈ 84 µM); in the data set with Salmonella choleraesuis it was 5000 µg/mL (≈ 6800 µM); in the data set with Rhodoccocuserythropolis it was 5000 µg/mL (≈ 6800 µM); in the data set with Ralstoniaeutropha, 5000 µg/mL (≈ 6800 µM). Further, the “number of pathogens active against” value in the data set on pathogens is recorded as “one”. In addition, the MIC in the data set on Phytophthoracapsici amounted to 600 µg/mL (≈ 816 µM).

With `CCCCOC(=O)CCCCCCC/C=C\CCCCCCC(C)OC1OC(CO)C(O)C(O)C1OC1OC(COC(C)=O)C(O)C(O)C1O` (centres unmarked) [SL-E-6], the “number of pathogens active against” value with pathogens is given as “one”. Besides, the MIC against Phytophthoracapsici was determined as 600 µg/mL (≈ 832 µM).

Turning to `CCCCOC(=O)CCCCCCC/C=C\CCCCCCC(C)OC1OC(COC(C)=O)C(O)C(O)C1OC1OC(COC(C)=O)C(O)C(O)C1O` (centres unmarked) [SL-E-8], in the data set with pathogens, the “number of pathogens active against” value is given as “one”. The same compound displayed an MIC in the data set with A. solani (setting [2]) of 1250 µg/mL (≈ 1640 µM).

With `CCCCCCOC(=O)CCCCCCC/C=C\CCCCCCC(C)OC1OC(CO)C(O)C(O)C1OC1OC(CO)C(O)C(O)C1O` (centres unmarked) [SL-E-9], the MIC100 in the data set on Eserichia coli was 1670 µg/mL (≈ 2360 µM); in the data set with Moraxella, 1670 µg/mL (≈ 2360 µM); in the data set with Salmonella choleraesuis it was 5000 µg/mL (≈ 7070 µM); in the data set on Ralstoniaeutropha, 5000 µg/mL (≈ 7070 µM).

With `CCOC(=O)CCCCCCC/C=C\CCCCCCC(C)O[C@@H]1O[C@H](COC(C)=O)[C@@H](O)[C@H](O)[C@H]1O[C@@H]1O[C@H](COC(C)=O)[C@@H](O)[C@H](O)[C@H]1O` (some centres unmarked) [sophorolipid diacetate ethyl ester], in the data set on vaginal cell, the vaginal cell toxicity result is given as “induces sufficient vaginal cell toxicity to raise concerns”.
